The values that follow come from article PMC4601562 (Bioorganic & medicinal chemistry, 2015).

Holding throughout (type): biochemical
One test deals with vcASADH (Vibrio cholerae, UniProt Q9KQG2). The test is described as follows: ASADH kinetic assay.
Test [1] has as its target T1, spASADH (Streptococcus pneumoniae, UniProt Q8DQ00).
T1 sequence (Q8DQ00 1-358): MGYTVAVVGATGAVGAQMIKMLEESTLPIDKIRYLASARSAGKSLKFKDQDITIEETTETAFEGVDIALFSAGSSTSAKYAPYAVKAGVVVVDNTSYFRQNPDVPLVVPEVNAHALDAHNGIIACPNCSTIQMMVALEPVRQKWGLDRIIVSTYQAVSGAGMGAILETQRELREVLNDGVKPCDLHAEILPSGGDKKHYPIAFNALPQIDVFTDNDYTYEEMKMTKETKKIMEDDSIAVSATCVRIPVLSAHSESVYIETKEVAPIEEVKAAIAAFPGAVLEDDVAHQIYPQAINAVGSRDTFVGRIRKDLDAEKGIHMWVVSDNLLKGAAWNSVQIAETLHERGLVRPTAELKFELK

For test [2], the system named is spASADH. The following applies: ratio of Ki vcASADH / spASADH.

Chain of vcASADH (Q9KQG2 whole entry): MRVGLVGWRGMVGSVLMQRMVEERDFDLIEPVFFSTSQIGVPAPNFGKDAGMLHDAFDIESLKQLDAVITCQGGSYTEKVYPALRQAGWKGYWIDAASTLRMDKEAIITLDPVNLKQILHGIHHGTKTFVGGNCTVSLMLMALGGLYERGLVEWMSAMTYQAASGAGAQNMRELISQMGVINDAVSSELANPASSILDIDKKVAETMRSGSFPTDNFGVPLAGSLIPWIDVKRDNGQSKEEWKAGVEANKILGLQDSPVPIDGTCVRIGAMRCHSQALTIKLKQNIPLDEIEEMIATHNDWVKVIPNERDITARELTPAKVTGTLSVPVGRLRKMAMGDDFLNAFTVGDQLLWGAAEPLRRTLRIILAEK

As to `O=C([O-])CCNCc1ccc(C(=O)[O-])c(C(=O)[O-])c1.[Na+].[Na+].[Na+]` [compound 4, N-carboxyethyl-3,4-dicarboxybenzylamine], the “inhibition of vcASADH (in words)” value at vcASADH is on record as “did not show appreciable inhibition”.
On the same count and under the same terms, the same measure for `CN(CC(=O)[O-])Cc1cccc(C(=O)[O-])c1C(=O)[O-].[Na+].[Na+].[Na+]` [compound 9, N-methyl, N-carboxymethyl-2,3-dicarboxybenzylamine]: “no inhibition”.
On to `O=C([O-])CN(Cc1ccc(C(=O)[O-])c(C(=O)[O-])c1)c1ccc(-c2ccccc2)cc1.[Na+].[Na+].[Na+]` [compound 17, N-(4-biphenyl)-N-carboxymethyl-3,4-dicarboxybenzylamine], for which the “improved inhibition of spASADH relative to the parent benzyl derivative” value at spASADH [1] (relative to parent benzyl derivative (13)) is reported as 25 fold.
In the case of `NC(=O)c1ccc(CN(CC(=O)[O-])Cc2ccc(C(=O)[O-])c(C(=O)[O-])c2)cc1.[Na+].[Na+].[Na+]` [compound 32, N-(4-carboxamidebenzyl)-N-carboxymethyl-3,4-dicarboxybenzylamine], the loss of affinity at spASADH [1] (carboxamide (32) relative to p-carboxylbenzyl derivative (31)) was 3 fold.
In the case of `CC(C)(C)c1ccc(CN(CC(=O)[O-])Cc2ccc(C(=O)[O-])c(C(=O)[O-])c2)cc1.[Na+].[Na+].[Na+]` [compound 33, N-(4-t-butylbenzyl)-N-carboxymethyl-3,4-dicarboxybenzylamine], the “selectivity for spASADH relative to vcASADH” value in the test with spASADH [2] is given as “over 40 fold”.
